Laboratory results: patent US9670204B2, “Compounds and pharmaceutical compositions thereof for the treatment of inflammatory disorders” (Galapagos NV, priority 2013, dated 2017)

How the values were obtained:
[1] = target: T1, hENPP2 (UniProtKB/SwissProt Q13822) (Homo sapiens (Human), UniProt Q13822); assay: hENPP2 biochemical assay, LPC as substrate; conditions: LPC (palmitoyl 16:0) as substrate
Method in brief: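 Human ENPP2 in 50 mM Tris-HCl pH 8.5, 500 mM NaCl, 5 mM KCl, 10 mM CaCl2, 0.1% fatty-acid-free BSA, reacted 30 min at 37 °C with LPC 16:0 (150 µM solution added 1:1). Released choline measured via choline oxidase/peroxidase/TOOS/4-aminoantipyrine quinoneimine dye at 555 nm; IC50 reported.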

[2] = target: T1, hENPP2; assay: fluorescent hENPP2 biochemical assay, FS-3 as substrate; conditions: read-out: FS3-IC50
Method in brief: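 IC50 values come from fluorescence gained as FS-3 is hydrolysed (ex 485, em 520 nm). The reaction, started by adding 0.75 μM FS-3 solution, runs 30 min at 30° C after a 30 min room-temperature preincubation of compound with enzyme. Buffer: Tris-HCl pH 8.0 with NaCl, KCl, MgCl2, CaCl2 and 0.1% BSA.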

[3] = test system: LPA 18:2 in human plasma; assay: Human whole blood (plasma) LPA assay; assay type: biochemical; conditions: 2 h at 37 C, LPA 18:2 by LC-MS/MS
Procedure: Blood is collected from healthy volunteers who gave informed consent into sodium heparin tubes by venipuncture, then gently inverted several times to prevent clotting. Tubes are centrifuged at 3000 rpm for 15 min at 4° C. then plasma is stored at −80° C. Compounds are diluted in DMSO in concentration dependent manner then 0.5 μL are dispensed into 96-well plate placed in ice. Plasma is defrosted on ice then 49.5 μL of plasma are added into the well containing 0.5 μL of compound (1% DMSO final). Plates are covered with a lid in polypropylene and incubated at +37° C., 5% CO2, for 2 h under gentle shaking (except controls which are stored at −20° C.).
At the end of the incubation, controls are defrosted in ice and transferred in the incubated plates for LC-MS/MS analysis with a non GLP-validated method. For the analysis, plasma proteins from a 10 μL incubated plates are precipitated with an excess of methanol containing the internal standard, LPA 17:0. After centrifugation, the corresponding supernatant is injected on a C18 column. Analytes are eluted out of the column under isocratic conditions. An API5500 QTRAP mass spectrometer (ABSciex™) is used for the detection of LPA 18:2. No calibration curve is prepared for LPA 18:2, however relative quantities are evaluated based on the peak area.

[4] = test system: LPA 18:2 in rat plasma; assay: Rat whole blood (plasma) LPA assay; assay type: biochemical; conditions: 2 h at 37 C, LPA 18:2 by LC-MS/MS
Method in brief: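 Heparinised rat plasma spiked with compound (1% DMSO final), incubated 2 h at 37 °C, 5% CO2 with shaking; controls kept at −20 °C. After methanol precipitation with LPA 17:0 internal standard, LPA 18:2 measured by LC-MS/MS (C18, isocratic), relative quantities from peak area without calibration.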

[5] = test system: TS-induced pulmonary inflammation, cells in BALF; assay: Tobacco smoke (TS) model, lungs inflammatory cells recruitment; assay type: in vivo, female C57BL/6J mice; conditions: days 6 to 11, TS-exposed mice
Procedure: The aim of this experiment is to evaluate the efficacy and potency of a test compound administered p.o., once or twice daily on days 6 to 11, vs reference compounds, on pulmonary inflammation induced by 11 days of TS-exposure in female C57BL/6J mice, by assessing the effect of a test compound on the tobacco smoke induced recruitment of inflammatory cells to the lungs.
The test compounds are formulated in PEG200/0.5% methylcellulose (25/75, v/v) and are given at a dose volume of 10 mL/kg. Roflumilast and Dexamethasone are included as positive […] control, respectively. Each treatment group consists of 10 mice.
A first group of mice is subjected to daily TS-exposure for 5 consecutive days and sacrificed on the day 6, 24 h after the final TS-exposure.
A second group is exposed to air for 5 consecutive days (sham exposure) and sacrificed on the day 6, 24 h after the final air-exposure.
Compound and reference-treated groups are subjected to daily TS-exposure for 11 consecutive days and sacrificed on the day 12, 24 h after the final TS-exposure. Mice are dosed p.o. on days 6 to 11, twice daily, 1 h prior to and 6 h after each TS-exposure, with either vehicle, or the test compound at 3, 5, 10 or 30 mg/kg. Another group is dosed p.o. on days 6 to 11, once daily, 1 h prior to each TS-exposure, with either vehicle, or the test compound at 10 mg/kg.
An additional group is dosed p.o., once daily, on days 6 to 11, with roflumilast at 5 mg/kg, 1 h prior to each TS-exposure. Dexamethasone is dosed p.o., twice daily, on days 6 to 11, at 0.3 mg/kg, 1 h prior to and 6 h after each TS-exposure.
For each mouse, a BAL is performed using 0.4 mL of PBS. The lavage fluid is centrifuged, the supernatant removed and the resulting cell pellet re-suspended for total cell counts and cytospin slide preparation. […]
The lungs are dissected out and the left lobes are removed, snap-frozen and stored at −80° C. […] Cell data are presented as individual data points for each animal and the mean value calculated for each group. […]
Percentage inhibitions for the cell data are calculated using the formula below: […]

| SMILES | IC50 [1] | IC50 [2] | IC50 [3] | IC50 [4] | number of cells recovered in the BALF, in particular macrophage cells, epithelial cells, and neutrophils ([5]; 10 mg/kg twice daily p.o.) | number of cells recovered in the BALF, in particular macrophage cells, epithelial cells, and neutrophils ([5]; 3 mg/kg twice daily p.o.) |
| --- | --- | --- | --- | --- | --- | --- |
| CCc1nc2c(F)cc(N3CCN(CC(=O)N4CC(O)C4)CC3)cn2c1N(C)c1nc(-c2ccc(F)cc2)c(C#N)s1 [Compound 12, 2-((2-ethyl-8-fluoro-6-(4-(2-(3-hydroxyazetidin-1-yl)-2-oxoethyl)piperazin-1-yl)imidazo[1,2-a]pyridin-3-yl)(methyl)amino)-4-(4-fluorophenyl)thiazole-5-carbonitrile] | 0.01 to 100 nM | 0.01 to 100 nM | 100 to 500 nM | 0.01 to 100 nM | significantly inhibited |  |
| CCc1nc2ccc(C3CCN(S(C)(=O)=O)CC3)cn2c1N(C)c1nc(-c2ccc(F)cc2)cs1 [Compound 80, N-(2-ethyl-6-(1-(methylsulfonyl)piperidin-4-yl)imidazo[1,2-a]pyridin-3-yl)-4-(4-fluorophenyl)-N-methylthiazol-2-amine] | 500 to 1000 nM | 0.01 to 100 nM | > 1000 nM | 500 to 1000 nM |  |  |
| CCc1nc2c(F)cc(N3CCN(CC(=O)NC)CC3)cn2c1N(C)c1nc(-c2ccc(F)cc2)c(C#N)s1 [Compound 13, 2-(4-(3-((5-cyano-4-(4-fluorophenyl)thiazol-2-yl)(methyl)amino)-2-ethyl-8-fluoroimidazo[1,2-a]pyridin-6-yl)piperazin-1-yl)-N-methylacetamide] |  |  | 100 to 500 nM | 0.01 to 100 nM |  |  |
| CCc1nc2c(C)cc(N3CCN(CC(=O)N4CC(O)C4)CC3)cn2c1N(C)c1nc(-c2ccc(F)cc2)c(C#N)s1 [Compound 2, 2-((2-ethyl-6-(4-(2-(3-hydroxyazetidin-1-yl)-2-oxoethyl)piperazin-1-yl)-8-methylimidazo[1,2-a]pyridin-3-yl)(methyl)amino)-4-(4-fluorophenyl) thiazole-5-carbonitrile] |  |  | 100 to 500 nM | 500 to 1000 nM | significantly inhibited | significantly inhibited |
| CCc1nc2ccc(N3CCN(Cc4cnc[nH]4)CC3)cn2c1N(C)c1nc(-c2ccc(F)cc2)cs1 [Compound 192, N-(6-(4-((1H-imidazol-5-yl)methyl)piperazin-1-yl)-2-ethylimidazo[1,2-a]pyridin-3-yl)-4-(4-fluorophenyl)-N-methylthiazol-2-amine] | 500 to 1000 nM | 0.01 to 100 nM |  | > 1000 nM |  |  |
| CCc1nc2ccc(C3CCN(CC(=O)N(C)C)CC3)cn2c1N(C)c1nc(-c2ccc(F)cc2)cs1 [Compound 114, 2-(4-(2-ethyl-3-((4-(4-fluorophenyl)thiazol-2-yl)(methyl)amino)imidazo[1,2-a]pyridin-6-yl)piperidin-1-yl)-N,N-dimethylacetamide] | 100 to 500 nM | 0.01 to 100 nM |  | 500 to 1000 nM |  |  |
| CCc1nc2ccc(C3CCN(CC(=O)N4CC(CO)C4)CC3)cn2c1N(C)c1nc(-c2ccc(F)cc2)cs1 [Compound 113, 2-(4-(2-ethyl-3-((4-(4-fluorophenyl)thiazol-2-yl)(methyl)amino)imidazo[1,2-a]pyridin-6-yl)piperidin-1-yl)-1-(3-(hydroxymethyl)azetidin-1-yl) ethanone] | 100 to 500 nM | 0.01 to 100 nM |  | 100 to 500 nM |  |  |
| CCc1nc2ccc(N3CCS(=O)(=O)CC3)cn2c1N(C)c1nc(-c2ccc(F)cc2)cs1 [Compound 182, 4-(2-ethyl-3-((4-(4-fluorophenyl)thiazol-2-yl)(methyl)amino)imidazo[1,2-a]pyridin-6-yl)-thiomorpholine 1,1-dioxide] | > 1000 nM | 0.01 to 100 nM |  | > 1000 nM |  |  |
| CCc1nc2ccc(N3CCOC3=O)cn2c1N(C)c1nc(-c2ccc(Cl)cc2)cs1 [Compound 206, 3-(3-((4-(4-chlorophenyl)thiazol-2-yl)(methyl)amino)-2-ethylimidazo[1,2-a]pyridin-6-yl)oxazolidin-2-one] | > 1000 nM | 0.01 to 100 nM |  | > 1000 nM |  |  |
| CCc1nc2ccc(C3CCN(S(=O)(=O)CCCN4CCOCC4)CC3)cn2c1N(C)c1nc(-c2ccc(F)cc2)cs1 [Compound 88, N-(2-ethyl-6-(1-(3-morpholinopropyl-sulfonyl)piperidin-4-yl)imidazo[1,2-a]pyridin-3-yl)-4-(4-fluorophenyl)-N-methylthiazol-2-amine] | 100 to 500 nM | 0.01 to 100 nM |  | 100 to 500 nM |  |  |
| CCc1nc2ccc(N3CCN(CCO)CC3)cn2c1N(C)c1nc(-c2ccc(F)cc2)cs1 [Compound 180, 2-(4-(2-ethyl-3-((4-(4-fluorophenyl)thiazol-2-yl)(methyl)amino)imidazo [1,2-a]pyridin-6-yl)piperazin-1-yl)ethanol] | > 1000 nM | 0.01 to 100 nM |  | > 1000 nM |  |  |
| CCc1nc2ccc(N3CCN(CC(=O)N4CC(O)C4)CC3)cn2c1N(C)c1nc(-c2ccc(F)cc2)c(C#N)s1 [Compound 138, 2-((2-ethyl-6-(4-(2-(3-hydroxyazetidin-1-yl)-2-oxoethyl)piperazin-1-yl)imidazo[1,2-a]pyridin-3-yl)(methyl)amino)-4-(4-fluorophenyl)thiazole-5-carbonitrile] | 0.01 to 100 nM | 0.01 to 100 nM |  | 0.01 to 100 nM |  |  |
| CCc1nc2ccc(C3CCN(S(=O)(=O)CCN4CCOCC4)CC3)cn2c1N(C)c1nc(-c2ccc(F)cc2)cs1 [Compound 91, N-(2-ethyl-6-(1-(2-morpholinoethylsulfonyl)piperidin-4 yl)imidazo[1,2-a]pyridin-3-yl)-4-(4-fluorophenyl)-N-methylthiazol-2-amine] | 500 to 1000 nM | 0.01 to 100 nM |  | > 1000 nM |  |  |
| CCc1nc2ccc(C3CCN(CC(=O)N4CC(O)C4)CC3)cn2c1N(C)c1nc(-c2ccc(F)cc2)cs1 [Compound 110, 2-(4-(2-ethyl-3-((4-(4-fluorophenyl)thiazol-2-yl)(methyl)amino)imidazo[1,2-a]pyridin-6-yl)piperidin-1-yl)-(3-hydroxyazetidin-1-yl)ethanone] | 100 to 500 nM | 0.01 to 100 nM | > 1000 nM | > 1000 nM |  |  |
